In patent publication US4409210A, “Antibiotic compound” (priority 1982, dated 1983):
≈ marks a conversion by molar mass, not a printed value. Read-outs that look alike come from different tables or passages of the source. *1 amine or outer side, *2 acyl side, *3 side chain or, on linkers, in order; H or OH if unused. Where a SMILES comes first, the peptide text is derived from it. Bridges are numbered along the chain shown (N, C = ends). [ ]: non-standard residue; d: D form. ξ: configuration not given here. X2 = CCCCCCCCCCCC(CC(=O)[*:1])O[*:2]; ξAsp(3ξ-OH) = NC(C(=O)O)C(O)C(=O)O; X1 = O=C(C1C(O)CCN1[*:1])[*:2]

Experiments:
[1] = test system: Haemophilus influenzae A22481; assay: MIC, serial two-fold dilution method (aerobic); type: cell-based
[2] = test system: Streptococcus pyogenes Dick; assay: MIC, serial two-fold dilution method (aerobic); type: cell-based; conditions: for MIC: read-out: minimum inhibitory concentration (MIC)
[3] = test system: Neisseria gonorrhoeae A15112; assay: MIC, serial two-fold dilution method (aerobic); type: cell-based
[4] = test system: Neisseria meningitidis A20048; assay: MIC, serial two-fold dilution method (aerobic); type: cell-based
[5] = test system: Haemophilus influenzae A9729; assay: MIC, serial two-fold dilution method (aerobic); type: cell-based
[6] = test system: Streptococcus pneumoniae IID-Type-I; assay: MIC, serial two-fold dilution method (aerobic); type: cell-based; conditions: for MIC: read-out: minimum inhibitory concentration (MIC)
Strain G393-B445 = assay: Antibiotic sensitivity, paper disc-agar diffusion method; type: cell-based, Empedobacter sp.; set-up: key: S (sensitive); R (resistant); I (intermediate); conditions: nutrient agar, 2 day's incubation at 28° C., Difco discs, amount/disc per antibiotic
[7] = test system: Streptococcus pneumoniae A9585; assay: MIC, serial two-fold dilution method (aerobic); type: cell-based
E. coli NIHJ = assay: Antibiotic sensitivity, paper disc-agar diffusion method; type: cell-based; set-up: key: S (sensitive); R (resistant); I (intermediate); conditions: nutrient agar, 2 day's incubation at 28° C., Difco discs, amount/disc per antibiotic
[8] = test system: Streptococcus pyogenes A9604; assay: MIC, serial two-fold dilution method (aerobic); type: cell-based
S. aureus BX-1633 = type: in vivo, mice; conditions: Exp. Run No. C-1319, observed 5 days
staphylococci = assay: MIC summary, staphylococci; type: cell-based; conditions: against staphylococci
C. perfringens A9635 = type: in vivo, mice; conditions: observed 5 days
S. pyogenes A20201 = assay: Experimental infection of mice, PD50; type: in vivo; conditions: observed 5 days
S. aureus Smith = assay: Experimental infection of mice, PD50; type: in vivo; conditions: observed 5 days
[9] = Streptococcus pyogenes Dick, GC medium, inoculum 10^6 CFU/ml
[10] = Streptococcus pneumoniae IID-Type-I, GC medium, inoculum 10^6 CFU/ml
[11] = Haemophilus influenzae A22481, GC medium, inoculum 10^6 CFU/ml
[12] = Exp. Run No. C-1318, 2.5 × 10^7 cell/mouse, 11 × LD50, im just before challenge
[13] = Neisseria gonorrhoeae A15112, GC medium, inoculum 10^6 CFU/ml
[14] = Neisseria meningitidis A20048, GC medium, inoculum 10^6 CFU/ml
[15] = Haemophilus influenzae A9729, GC medium, inoculum 10^6 CFU/ml
[16] = Streptococcus pneumoniae A9585, GC medium, inoculum 10^6 CFU/ml
[17] = Exp. Run No. C-1313, 1.3 × 10^2 cell/mouse, 60 × LD50, im just before challenge
[18] = Exp. Run No. C-1247, 1.3 × 10^6 cell/mouse, 350 × LD50, im just before challenge
[19] = Exp. Run No. C-1312, 1.3 × 10^6 cell/mouse, 200 × LD50, im just before challenge
[20] = Streptococcus pyogenes A9604, GC medium, inoculum 10^6 CFU/ml

Compound	Sensitivity Strain G393-B445 (Strain G393-B445)	Sensitivity E. coli NIHJ (E. coli NIHJ)	PD50 (mg/kg, im) (S. aureus BX-1633) [mg/kg]	minimum inhibitory concentration (MIC) [1, 11] [mg/L]	minimum inhibitory concentration (MIC) [2, 9] [mg/L]	PD50 (mg/kg, im) (C. perfringens A9635; [12]) [mg/kg]	minimum inhibitory concentration (MIC) [3, 13] [mg/L]	minimum inhibitory concentration (MIC) [4, 14] [mg/L]	minimum inhibitory concentration (MIC) [5, 15] [mg/L]	minimum inhibitory concentration (MIC) [6, 10] [mg/L]	minimum inhibitory concentration (MIC) [7, 16] [mg/L]	PD50 (mg/kg, im) (S. pyogenes A20201; [17]) [mg/kg]	PD50 (mg/kg, im) (S. aureus Smith; [18]) [mg/kg]	PD50 (mg/kg, im) (S. aureus Smith; [19]) [mg/kg]	minimum inhibitory concentration (MIC) [8, 20] [mg/L]	further results
CC1(C)S[C@@H]2[C@H](NC(=O)[C@H](N)c3ccccc3)C(=O)N2[C@H]1C(=O)O [Ampicillin]	S	S														MIC ([1]; Haemophilus influenzae A22481, GC medium, inoculum 10^6 CFU/ml, read-out: minimum inhibitory concentration (MIC)): 50 mg/L (≈ 143 µM); MIC [2, 9]: 0.013 mg/L (≈ 0.0372 µM); MIC ([3]; Neisseria gonorrhoeae A15112, GC medium, inoculum 10^6 CFU/ml, read-out: minimum inhibitory concentration (MIC)): 0.4 mg/L (≈ 1.14 µM); MIC ([4]; Neisseria meningitidis A20048, GC medium, inoculum 10^6 CFU/ml, read-out: minimum inhibitory concentration (MIC)): 0.4 mg/L (≈ 1.14 µM); MIC ([5]; Haemophilus influenzae A9729, GC medium, inoculum 10^6 CFU/ml, read-out: minimum inhibitory concentration (MIC)): 0.8 mg/L (≈ 2.29 µM); MIC [6, 10]: 0.025 mg/L (≈ 0.0715 µM); MIC ([7]; Streptococcus pneumoniae A9585, GC medium, inoculum 10^6 CFU/ml, read-out: minimum inhibitory concentration (MIC)): 0.025 mg/L (≈ 0.0715 µM); MIC ([8]; Streptococcus pyogenes A9604, GC medium, inoculum 10^6 CFU/ml, read-out: minimum inhibitory concentration (MIC)): 0.013 mg/L (≈ 0.0372 µM)
CCCCCCCCCCCC1CC(=O)N2CCCC2C(=O)NC(CO)C(=O)N2CCCC2C(=O)NC(CCCNC(=N)N)C(=O)NC(C(O)C(=O)O)C(=O)NC(CO)C(=O)N2CCC(O)C2C(=O)NC(C(O)C(=O)O)C(=O)O1 (stereo not drawn) [Bu-2517] (PSPR[ξAsp(3ξ-OH)]S[X1][ξAsp(3ξ-OH)]; linker N-C via X2; configuration not given here)			3.6	> 100	1.6 (≈ 1.42 µM)	6.8	> 100	> 100	> 100	0.8 (≈ 0.71 µM)	1.6 (≈ 1.42 µM)	1.5	3.3	3.3	1.6 (≈ 1.42 µM)	fold more active than amphomycin (staphylococci): 2-4 fold; PD50 (mg/kg, im) (C. perfringens A9635; Exp. Run No. C-1175, 2.5 × 10^7 cell/mouse, 18 × LD50, im just before challenge): 5.5 mg/kg; PD50 (mg/kg, im) (S. pyogenes A20201; Exp. Run No. C-1174, 1.3 × 10^2 cell/mouse, 30 × LD50, im just before challenge): 1.0 mg/kg
O=C(N[C@H](CO)[C@H](O)c1ccc([N+](=O)[O-])cc1)C(Cl)Cl [Chloramphenicol]	S	S														
CC[C@H]1OC(=O)[C@H](C)[C@@H](O[C@H]2C[C@@](C)(OC)[C@@H](O)[C@H](C)O2)[C@H](C)[C@@H](O[C@@H]2O[C@H](C)C[C@H](N(C)C)[C@H]2O)[C@](C)(O)C[C@@H](C)C(=O)[C@H](C)[C@@H](O)[C@]1(C)O [Erythromycin]	S	R														
CN[C@H](CC(C)C)C(=O)N[C@H]1C(=O)N[C@@H](CC(N)=O)C(=O)N[C@H]2C(=O)N[C@H]3C(=O)N[C@H](C(=O)N[C@H](C(=O)O)c4cc(O)cc(O)c4-c4cc3ccc4O)[C@H](O)c3ccc(c(Cl)c3)Oc3cc2cc(c3O[C@@H]2O[C@H](CO)[C@@H](O)[C@H](O)[C@H]2O[C@H]2C[C@](C)(N)[C@H](O)[C@H](C)O2)Oc2ccc(cc2Cl)[C@H]1O [Vancomycin]																MIC ([1]; Haemophilus influenzae, A22481, read-out: minimum inhibitory concentration (MIC)): > 100 mg/L; MIC ([2]; Streptococcus pyogenes): 0.8 mg/L (≈ 0.552 µM); MIC ([3]; Neisseria gonorrhoeae, A15112, read-out: minimum inhibitory concentration (MIC)): > 100 mg/L; MIC ([4]; Neisseria meningitidis, A20048, read-out: minimum inhibitory concentration (MIC)): > 100 mg/L; MIC ([5]; Haemophilus influenzae, A9729, read-out: minimum inhibitory concentration (MIC)): > 100 mg/L; MIC ([6]; Streptococcus pneumoniae): 0.8 mg/L (≈ 0.552 µM); MIC ([7]; Streptococcus pneumoniae, A9585, read-out: minimum inhibitory concentration (MIC)): 0.4 mg/L (≈ 0.276 µM); MIC ([8]; Streptococcus pyogenes, A9604, read-out: minimum inhibitory concentration (MIC)): 0.4 mg/L (≈ 0.276 µM)
Amphomycin			4.4	> 100	12.5	7.4	> 100	> 100	> 100	25	25	3.5	9.0	3.3	12.5	
